# Reference: US12173088B2, “Anti-microbial peptides” (priority 2018, dated 2024)
# Square brackets hold non-standard residues; d marks the D form. Peptide text beside a SMILES is read from it. Orn = NCCC[C@H](N)C(=O)O
# Legend:
# S. aureus USA300 = test: microbe, parasite or virus in culture; type: cell-based, Staphylococcus aureus; settings: USA300
# Description: The bacterial strains used include the Gram-positive strains Staphylococcus aureus USA300 LAC, S. epidermidis 1457, and Bacillus subtilis 168, as well as the Gram-negative isolates Escherichia coli K12 and Acinetobacter baumannii B2367-12. Additional, drug resistance strains include Gram-positive Enterococcus faecium V286-17 (VRE) and S. aureus M838-17 (MRSA) and Gram-negative E. coli E423-17, E. coli E416-17 (ampC), and P. aeruginosa E411-17. Bacteria were cultivated in tryptic soy broth (TSB) (BD Bioscience, MD).
# (§1) The antibacterial activity of peptides was evaluated using a standard broth microdilution protocol with minor modifications as described (Mishra, et al. (2012) J. Am. Chem. Soc., 134:12426-12429). In brief, logarithmic phase bacterial cultures (i.e., optical density at 600 nm≈0.5) were diluted to OD600 0.001 and partitioned into a 96-well polystyrene microplate at 90 μL per well. After treatment with 10 μL of peptide solutions two fold diluted to various concentrations, microplates were incubated at 37° C. overnight and read on a ChroMate® 4300 Microplate Reader at 630 nm (GMI, Ramsey, MN). […] To study the influence of medium conditions on the antimicrobial activity of peptides against S. aureus USA300, up to 200 mM sodium chloride (NaCl), 2 mM of calcium chloride, 5-10% of human serum, mouse plasma, fluid, or supernatants of tissue homogenates were included into the assays.
# (§2) The bacterial strains used include the Gram-positive bacteria methicillin-resistant Staphylococcus aureus USA300, Enterococcus faecium V286-17 (VRE), S. aureus M838-17 (MRSA) and Gram-negative bacteria E. coli E423-17, E416-7 (ampC), P. aeruginosa E411-17, PA01, K. pneumoniae E406-17, ATCC13883, and A. baumannii B26-16. Bacteria were cultivated in tryptic soy broth (TSB) from BD Bioscience.
# (§3) The antibacterial activity of peptides was evaluated using a standard broth microdilution protocol with minor modifications (Mishra, et al. (2017) Acta Biomater., 49:316-328). In brief, logarithmic phase bacterial cultures (i.e., optical density at 600 nm≈0.5) were diluted to 0.001 OD and aliquoted 90 μL per well into a 96-well polystyrene microplate. Added 10 μL peptides per well with various concentrations, plates were incubated at 37° C., overnight. Post incubation the plates are read at 630 nm using a ChroMate® Microplate Reader (GMI). […] To study the influence of medium conditions on the antimicrobial activity of peptides against S. aureus USA300 at different pHs (6.8, 7.2, and 8.0), 150 mM sodium chloride (NaCl), 5-10% of human serum, mouse plasma, and peritoneal fluid were included into the assays.
# P. aeruginosa PAO1 = type: cell-based, Pseudomonas aeruginosa
# Experimental: as §1, §2, §3
# E. coli ATCC 25922 = type: cell-based, Escherichia coli; settings: ATCC 25922
# Experimental: as §1, §3
# K. pneumoniae ATCC 13883 = type: cell-based, Klebsiella pneumoniae; settings: ATCC 13883
# Experimental: as §1, §2, §3
# [1] = test system: human red blood cells (hRBCs); test: Hemolytic assay; type: cell-based
# Experimental: Briefly, human red blood cells (hRBCs) were washed three times with phosphate buffer saline (PBS) and diluted to a 2% solution (v/v). After peptide treatment, incubation at 37° C. for one hour, and centrifugation at 5000 rpm for 10 minutes, aliquots of the supernatant were carefully transferred to a fresh 96-well microplate. The amount of hemoglobin released was measured at 545 nm. The percent lysis was calculated by assuming 100% release when human blood cells were treated with 2% Triton™ X-100, and 0% release when incubated with PBS buffer. The peptide concentration that caused 50% lysis of hRBCs is defined as HL50. The cell selectivity index (CSI) was calculated as the ratio between HL50 and MIC of the corresponding peptide against a select pathogenic species.
# Hemolytic assays of peptides were performed as described (Mishra, et al. (2017) Acta Biomater., 49:316-328). Briefly, human red blood cells (hRBCs) obtained from UNMC Blood Bank. The blood washed 3× with isotonic saline (0.9% NaCl) and diluted to 2% blood cells (v/v). Peptide horine and verine at various concentrations were added into the 2% blood cells and incubated at 37° C. for 1 hour. Post incubation the plates were spun at 2000 rpm for 10 minutes, aliquots of the supernatant were carefully transferred to a fresh 96-well microplate. The amount of cells lysed is proportional to the hemoglobin released and measured at 545 nm using a ChroMate® microplate reader. The percent lysis was calculated by assuming 100% release when human blood cells were treated with 1% Triton™ X-100, and 0% release when incubated with PBS. The peptide concentration that caused 50% lysis of hRBCs is defined as HL50.
Structure (SMILES),MIC S. aureus USA 300 (S. aureus USA300) [µM],MIC P. aeruginosa PAO1 (P. aeruginosa PAO1) [µM],MIC E. coli ATCC 25922 (E. coli ATCC 25922) [µM],MIC K. pneumoniae (K. pneumoniae ATCC 13883) [µM],HL50 [1] [µM],MIC K. pneumonia ATCC 13883 (K. pneumoniae ATCC 13883) [µM],Activity against Pseudomonas aeruginosa PAO1 (P. aeruginosa PAO1)
"CC(C)C[C@H](NC(=O)[C@H](CC(C)C)NC(=O)[C@H](CCCCN)NC(=O)CNC(=O)[C@H](CC(C)C)NC(=O)[C@H](C)NC(=O)[C@H](CO)NC(=O)[C@H](CC(C)C)NC(=O)[C@H](CC(C)C)NC(=O)[C@H](CO)NC(=O)[C@H](CC(C)C)NC(=O)[C@H](CC(C)C)NC(=O)CN)C(N)=O [DFT510, GLLSLLSALGKLL] (H-GLLSLLSALGKLL-NH2; N-terminus assumed)",1.56,>25,>25,>25,19,–,–
"CC(C)C[C@H](NC(=O)[C@H](C)NC(=O)[C@H](CCCCN)NC(=O)CNC(=O)[C@H](CC(C)C)NC(=O)[C@H](CC(C)C)NC(=O)[C@H](CO)NC(=O)[C@H](CC(C)C)NC(=O)[C@H](CC(C)C)NC(=O)[C@H](CO)NC(=O)[C@H](CC(C)C)NC(=O)[C@H](CC(C)C)NC(=O)CN)C(N)=O [DFT512, GLLSLLSLLGKAL] (H-GLLSLLSLLGKAL-NH2; N-terminus assumed)",0.78,>25,3.1,3.1,4,–,–
"CC(C)C[C@H](NC(=O)[C@H](CC(C)C)NC(=O)[C@H](CCCCN)NC(=O)CNC(=O)[C@H](CC(C)C)NC(=O)[C@H](CC(C)C)NC(=O)[C@H](CO)NC(=O)[C@H](C)NC(=O)[C@H](CC(C)C)NC(=O)[C@H](CO)NC(=O)[C@H](CC(C)C)NC(=O)[C@H](CC(C)C)NC(=O)CN)C(N)=O [DFT509, GLLSLASLLGKLL] (H-GLLSLASLLGKLL-NH2; N-terminus assumed)",0.78,6.2 to 12.5,1.5 to 3.1,3.1,4,–,–
"CC(C)C[C@H](NC(=O)[C@H](CC(C)C)NC(=O)[C@H](CCCCN)NC(=O)CNC(=O)[C@H](CC(C)C)NC(=O)[C@H](CC(C)C)NC(=O)[C@H](CO)NC(=O)[C@H](CC(C)C)NC(=O)[C@H](C)NC(=O)[C@H](CO)NC(=O)[C@H](CC(C)C)NC(=O)[C@H](CC(C)C)NC(=O)CN)C(N)=O [DFT508, GLLSALSLLGKLL] (H-GLLSALSLLGKLL-NH2; N-terminus assumed)",0.78,>25,3.1,3.1,6,–,–
"CC(C)C[C@H](NC(=O)[C@H](CC(C)C)NC(=O)[C@H](CCCCN)NC(=O)CNC(=O)[C@H](CC(C)C)NC(=O)[C@H](CO)NC(=O)[C@H](CO)NC(=O)[C@H](CC(C)C)NC(=O)CN)C(N)=O [DFT526, GL-S--SL-GKLL] (H-GLSSLGKLL-NH2; N-terminus and C-terminus assumed)",>25,>25,>25,–,>300,>25,–
"CC(C)C[C@H](NC(=O)[C@H](CC(C)C)NC(=O)[C@H](CCCN)NC(=O)CNC(=O)[C@H](CC(C)C)NC(=O)[C@H](C)NC(=O)[C@H](CCCN)NC(=O)[C@H](CC(C)C)NC(=O)[C@H](C)NC(=O)[C@H](CO)NC(=O)[C@H](CC(C)C)NC(=O)[C@H](CC(C)C)NC(=O)CN)C(N)=O [DFT516, GLLSALOALGOLL] (H-GLLSAL[Orn]ALG[Orn]LL-NH2; N-terminus assumed)",1.56,>25,3.1 to 6.25,3.1,36,–,–
"CC(C)C[C@H](NC(=O)[C@H](CC(C)C)NC(=O)[C@H](CCCCN)NC(=O)CNC(=O)[C@H](C)NC(=O)[C@H](CC(C)C)NC(=O)[C@H](CO)NC(=O)[C@H](CC(C)C)NC(=O)[C@H](CC(C)C)NC(=O)[C@H](CO)NC(=O)[C@H](CC(C)C)NC(=O)[C@H](CC(C)C)NC(=O)CN)C(N)=O [DFT511, GLLSLLSLAGKLL] (H-GLLSLLSLAGKLL-NH2; N-terminus assumed)",0.78,12.5,3.1,3.1,14,–,active
"CC(C)C[C@H](NC(=O)[C@H](CC(C)C)NC(=O)[C@H](CCCCN)NC(=O)CNC(=O)[C@H](CC(C)C)NC(=O)[C@H](C)NC(=O)[C@H](CCCN)NC(=O)[C@H](CC(C)C)NC(=O)[C@H](C)NC(=O)[C@H](CO)NC(=O)[C@H](CC(C)C)NC(=O)[C@H](CC(C)C)NC(=O)CN)C(N)=O [DFT515, GLLSALOALGKLL] (H-GLLSAL[Orn]ALGKLL-NH2; N-terminus assumed)",1.56,>25,3.1,3.1,36,–,–
"CC[C@H](C)[C@H](NC(=O)[C@H](CCCNC(=N)N)NC(=O)[C@H](CCCNC(=N)N)NC(=O)[C@H](CC(C)C)NC(=O)[C@H](CCCNC(=N)N)NC(=O)[C@H](Cc1c[nH]c2ccccc12)NC(=O)[C@@H](N)Cc1c[nH]c2ccccc12)C(=O)N[C@@H](Cc1c[nH]c2ccccc12)C(N)=O [WW302, WWRLRRIW] (H-WWRLRRIW-NH2; N-terminus and C-terminus assumed)",–,12.5,–,–,>200,>25,–
"CC[C@H](C)[C@H](NC(=O)[C@H](CCCNC(=N)N)NC(=O)[C@H](CCCNC(=N)N)NC(=O)[C@H](CC(C)C)NC(=O)[C@H](Cc1c[nH]c2ccccc12)NC(=O)[C@H](CCCNC(=N)N)NC(=O)[C@@H](N)Cc1c[nH]c2ccccc12)C(=O)N[C@@H](Cc1c[nH]c2ccccc12)C(N)=O [WW301, WRWLRRIW] (H-WRWLRRIW-NH2; N-terminus and C-terminus assumed)",–,6.2,–,–,100,25,–
"CC[C@H](C)[C@H](NC(=O)[C@H](CCCNC(=N)N)NC(=O)[C@H](CCCNC(=N)N)NC(=O)[C@H](CC(C)C)NC(=O)[C@H](Cc1c[nH]c2ccccc12)NC(=O)[C@H](Cc1c[nH]c2ccccc12)NC(=O)[C@@H](N)Cc1c[nH]c2ccccc12)C(=O)N[C@@H](CCCNC(=N)N)C(N)=O [WW305, WWWLRRIR] (H-WWWLRRIR-NH2; N-terminus and C-terminus assumed)",–,12.5,–,–,>200,>25,–
